Structures can show the parent of a compound that is named as a salt.

One assay has as its target SARS-CoV-2 Mac1 (Severe acute respiratory syndrome coronavirus 2, UniProt P0DTD1). The assay is described as follows: biochemical. To be noted: 100 µM; inhibitor.
On to `O=C1O[C@H]([C@@H](O)CO)C(O)=C1O` [Sodium ascorbate], for which the “%inhibition” value turned out to be 0%.

In the case of `O=C(O)c1ccccc1` [Sodium benzoate], the “%inhibition” value came out at 0%.

For `O=C(O)c1ccccc1O` [Sodium salicylate], the “%inhibition” value is 0%.

In the case of `Nc1ccc(S(=O)(=O)Nc2ncccn2)cc1` [Sodium sulfadiazine], the “%inhibition” value stood at 0%.

Take `CNC(=O)c1cc(Oc2ccc(NC(=O)Nc3ccc(Cl)c(C(F)(F)F)c3)cc2)ccn1` [Sorafenib Tosylate]: the “%inhibition” value was determined as 10.76%.

Consider `CC1(C)[C@H](C(=O)O)N2C(=O)C[C@H]2S1(=O)=O` [Sulbactam], for which the “%inhibition” value was 20.75%.

As to `CC(=O)NS(=O)(=O)c1ccc(N)cc1` [Sulfacetamide Sodium], the “%inhibition” value was 3.132%.

As to `CC(=O)NS(=O)(=O)c1ccc(N)cc1` [Sulfacetamide sodium salt hydrate], the “%inhibition” value is reported as 8.356%.

Regarding `CC(=O)NS(=O)(=O)c1ccc(N)cc1` [Sulfacetamide], the “%inhibition” value was found to be 27.01%.

Consider `Nc1ccc(S(=O)(=O)Nc2ncccn2)cc1` [Sulfadiazine], for which the “%inhibition” value came out at 29.9%.

On to `Cc1cc(C)nc(NS(=O)(=O)c2ccc(N)cc2)n1` [Sulfamethazine Sodium Salt], for which the “%inhibition” value turned out to be 12.6%.

`Cc1cc(C)nc(NS(=O)(=O)c2ccc(N)cc2)n1` [Sulfamethazine]: the “%inhibition” value is given as 0%.

Turning to `Cc1cc(NS(=O)(=O)c2ccc(N)cc2)no1` [Sulfamethoxazole sodium], the “%inhibition” value amounted to 0%.

As for `Cc1cc(NS(=O)(=O)c2ccc(N)cc2)no1` [Sulfamethoxazole], the “%inhibition” value was 24.84%.

Staying with this assay, now noted: read-out: %inhibition.
Regarding `NC(=O)C1CCCc2c1[nH]c1ccc(Cl)cc21` (stereo not shown) [Selisistat (EX 527)], the inhibition at 100 µM worked out at 15.7%.

For the molecule `Cn1cnc2c(F)c(Nc3ccc(Br)cc3Cl)c(C(=O)NOCCO)cc21` [Selumetinib (AZD6244)], the inhibition at 100 µM turned out to be 24.4%.

On to `CC(C)[C@H](O)C(=O)N[C@@H](C)C(=O)N[C@@H]1C(=O)N(C)CCc2ccccc21` [Semagacestat (LY450139)], for which the inhibition at 100 µM was 0%.

For `NCCc1c[nH]c2ccc(O)cc12` [Serotonin HCl], the inhibition at 100 µM stood at 8.8%.

Consider `Clc1ccc(C(Cn2ccnc2)OCc2csc3c(Cl)cccc23)c(Cl)c1` (stereo not shown) [Sertaconazole nitrate], for which the inhibition at 100 µM is 0%.

Turning to `CCCc1nn(C)c2c(=O)[nH]c(-c3cc(S(=O)(=O)N4CCN(C)CC4)ccc3OCC)nc12` [Sildenafil Citrate], the inhibition at 100 µM stood at 0%.

`COc1cc([C@H]2Oc3cc([C@H]4Oc5cc(O)cc(O)c5C(=O)[C@@H]4O)ccc3O[C@@H]2CO)ccc1O` [Silibinin]: the inhibition at 100 µM came out at 0%.

Consider `O=C(O)c1ccc2c(c1)nc(Nc1cccc(Cl)c1)c1ccncc12` [Silmitasertib (CX-4945)], for which the inhibition at 100 µM came to 0%.

As to `C[C@H](Cc1cc2c(c(C(N)=O)c1)N(CCCO)CC2)NCCOc1ccccc1OCC(F)(F)F` [Silodosin], the inhibition at 100 µM is 0%.

In the case of `COc1ccc2c(O[C@@H]3C[C@H]4C(=O)N[C@]5(C(=O)NS(=O)(=O)C6CC6)C[C@H]5/C=C\CCCCN(C)C(=O)[C@@H]4C3)cc(-c3nc(C(C)C)cs3)nc2c1C` [Simeprevir], the inhibition at 100 µM was 11.4%.

With `CCC(C)(C)C(=O)O[C@H]1C[C@@H](C)C=C2C=C[C@H](C)[C@H](CC[C@@H]3C[C@@H](O)CC(=O)O3)[C@H]21` [Simvastatin], the inhibition at 100 µM came to 14%.

Regarding `CN[C@@H]1[C@@H](O)[C@@H](O[C@@H]2[C@@H](O)[C@H](O[C@H]3OC(CN)=CC[C@H]3N)[C@@H](N)C[C@H]2N)OC[C@]1(C)O` [Sisomicin sulfate], the inhibition at 100 µM amounted to 0%.

For the molecule `N[C@@H]1CN(c2c(F)cc3c(=O)c(C(=O)O)cn([C@@H]4C[C@@H]4F)c3c2Cl)CC12CC2` [Sitafloxacin Hydrate], the inhibition at 100 µM worked out at 5.2%.

`N[C@@H](CC(=O)N1CCn2c(nnc2C(F)(F)F)C1)Cc1cc(F)c(F)cc1F` [Sitagliptin]: the inhibition at 100 µM worked out at 0%.

For `CC(C)(C)C(=O)Oc1ccc(S(=O)(=O)Nc2ccccc2C(=O)NCC(=O)O)cc1` [Sivelestat (ONO-5046)], the inhibition at 100 µM was determined as 0%.

Take `Nc1ccc(C(=O)O)c(O)c1` [Sodium 4-Aminosalicylate]: the inhibition at 100 µM was 0%.

Take `Nc1ccc(C(=O)NCC(=O)O)cc1` [Sodium 4-aminohippurate Hydrate]: the inhibition at 100 µM was 0%.

Consider `O=C(O)[C@H]1O[C@H](O)[C@H](O)[C@@H](O)[C@@H]1O` [Sodium Gluconate], for which the inhibition at 100 µM was found to be 0%.

As for `O=C(O)CCCc1ccccc1` [Sodium Phenylbutyrate], the inhibition at 100 µM was determined as 6.6%.

For `O=S(=O)(O)Oc1ccc(C(c2ccc(OS(=O)(=O)O)cc2)c2ccccn2)cc1` [Sodium Picosulfate], the inhibition at 100 µM came to 1.51%.

With `CCCC(=O)O` [Sodium butyrate], the inhibition at 100 µM worked out at 0%.

For the molecule `O=C(O)O` [Sodium carbonate], the inhibition at 100 µM stood at 0.406%.

For the molecule `Cc1cc(S(=O)(=O)O)c2c(C)ccc(C(C)C)cc1-2` [Sodium gualenate], the inhibition at 100 µM came to 12.6%.

As for `O=C(O)CCC(=O)O` [Sodium succinate], the inhibition at 100 µM was 0%.

`CC(C)=CCOc1ccc(/C=C/C(=O)c2ccc(OCC=C(C)C)cc2OCC(=O)O)cc1` [Sofalcone]: the inhibition at 100 µM was determined as 14.1%.

For the molecule `CC(C)OC(=O)[C@H](C)N[P@](=O)(OC[C@H]1O[C@@H](n2ccc(=O)[nH]c2=O)[C@](C)(F)[C@@H]1O)Oc1ccccc1` [Sofosbuvir (PSI-7977, GS-7977)], the inhibition at 100 µM came to 42.9%.

Regarding `Cc1c(C(=O)Nc2ccc(N3C[C@@H](C)O[C@@H](C)C3)nc2)cccc1-c1ccc(OC(F)(F)F)cc1` [Sonidegib (Erismodegib, NVP-LDE225)], the inhibition at 100 µM was 0%.

For the molecule `CNC(=O)c1cc(Oc2ccc(NC(=O)Nc3ccc(Cl)c(C(F)(F)F)c3)cc2)ccn1` [Sorafenib], the inhibition at 100 µM was 15.7%.

As to `OC[C@@H](O)[C@@H](O)[C@H](O)[C@@H](O)CO` [Sorbitol], the inhibition at 100 µM is 0%.

Regarding `CCOc1ccc(Cc2cc([C@@H]3O[C@H](SC)[C@@H](O)[C@H](O)[C@H]3O)ccc2Cl)cc1` [Sotagliflozin (LX4211)], the inhibition at 100 µM came to 0%.

In the case of `CC(C)NCC(O)c1ccc(NS(C)(=O)=O)cc1` (stereo not shown) [Sotalol HCl], the inhibition at 100 µM was 0%.

As to `CN1CCN(c2nc(C3=C(c4c[nH]c5ccccc45)C(=O)NC3=O)c3ccccc3n2)CC1` [Sotrastaurin], the inhibition at 100 µM came to 34.7%.

Turning to `C[C@@H]1CN(c2c(F)c(N)c3c(=O)c(C(=O)O)cn(C4CC4)c3c2F)C[C@H](C)N1` [Sparfloxacin], the inhibition at 100 µM is 25.5%.

Regarding `CN[C@@H]1[C@H](O)[C@H](NC)[C@H]2O[C@@]3(O)C(=O)C[C@@H](C)O[C@H]3O[C@@H]2[C@H]1O` [Spectinomycin 2HCl], the inhibition at 100 µM stood at 11.7%.

Consider `CC(=O)S[C@@H]1CC2=CC(=O)CC[C@]2(C)[C@H]2CC[C@@]3(C)[C@@H](CC[C@@]34CCC(=O)O4)[C@H]12` [Spironolactone], for which the inhibition at 100 µM stood at 6.62%.

With `Cc1cn([C@H]2C=C[C@@H](CO)O2)c(=O)[nH]c1=O` [Stavudine (d4T)], the inhibition at 100 µM is 0%.

As to `CCCCCCCCCCCCCCCCCC(=O)O` [Stearic acid], the inhibition at 100 µM is 6.72%.

As for `CC(C)(C)C(O)/C=C/c1ccc2c(c1)OCO2` (stereo not shown) [Stiripentol], the inhibition at 100 µM came out at 12.5%.

In the case of `CN[C@@H]1[C@H](O[C@H]2[C@H](O[C@H]3[C@H](O)[C@@H](O)[C@H](N=C(N)N)[C@@H](O)[C@@H]3N=C(N)N)O[C@@H](C)[C@]2(O)C=O)O[C@@H](CO)[C@H](O)[C@H]1O` [Streptomycin sulfate], the inhibition at 100 µM is 0%.

Turning to `C[N+](C)(C)CCOC(=O)CCC(=O)OCC[N+](C)(C)C` [Succinylcholine Chloride Dihydrate], the inhibition at 100 µM turned out to be 0%.

As for `O=C(O)CCC(=O)Nc1ccc(S(=O)(=O)Nc2nccs2)cc1` [Succinylsulfathiazole], the inhibition at 100 µM came out at 0%.

For the molecule `CC1(C)[C@H](C(=O)O)N2C(=O)C[C@H]2S1(=O)=O` [Sulbactam sodium], the inhibition at 100 µM was found to be 16.4%.

As to `Nc1ccc(S(=O)(=O)NC(=O)c2ccccc2)cc1` [Sulfabenzamide], the inhibition at 100 µM worked out at 0%.

As to `COc1ncnc(NS(=O)(=O)c2ccc(N)cc2)c1OC` [Sulfadoxine], the inhibition at 100 µM turned out to be 0%.

Turning to `N=C(N)NS(=O)(=O)c1ccc(N)cc1` [Sulfaguanidine], the inhibition at 100 µM turned out to be 8.72%.

`COc1nccnc1NS(=O)(=O)c1ccc(N)cc1` [Sulfalene(SMPZ)]: the inhibition at 100 µM is 5.42%.

In the case of `Nc1ccc(S(=O)(=O)Nc2cncc(Cl)n2)cc1` [Sulfalozine sodium], the inhibition at 100 µM amounted to 0%.

Take `Cc1ccnc(NS(=O)(=O)c2ccc(N)cc2)n1` [Sulfamerazine]: the inhibition at 100 µM was 0%.

Turning to `COc1cnc(NS(=O)(=O)c2ccc(N)cc2)nc1` [Sulfameter], the inhibition at 100 µM was 0%.

As for `Cc1nnc(NS(=O)(=O)c2ccc(N)cc2)s1` [Sulfamethizole], the inhibition at 100 µM came out at 15.9%.

Turning to `COc1ccc(NS(=O)(=O)c2ccc(N)cc2)nn1` [Sulfamethoxypyridazine], the inhibition at 100 µM was found to be 4.31%.

Turning to `Nc1ccc(S(N)(=O)=O)cc1` [Sulfanilamide], the inhibition at 100 µM amounted to 19.9%.

As to `Nc1ccc(S(=O)(=O)Nc2ccnn2-c2ccccc2)cc1` [Sulfaphenazole], the inhibition at 100 µM came out at 0%.

For `Nc1ccc(S(=O)(=O)Nc2ccccn2)cc1` [Sulfapyridine], the inhibition at 100 µM came to 10.7%.

For the molecule `O=C(O)c1cc(/N=N/c2ccc(S(=O)(=O)Nc3ccccn3)cc2)ccc1O` [Sulfasalazine], the inhibition at 100 µM was 0%.

Consider `Nc1ccc(S(=O)(=O)Nc2nccs2)cc1` [Sulfathiazole], for which the inhibition at 100 µM was 5.37%.

`Cc1noc(NS(=O)(=O)c2ccc(N)cc2)c1C` [Sulfisoxazole]: the inhibition at 100 µM worked out at 20.4%.

On to `COc1cc(S(=O)(=O)O)ccc1O` [Sulfogaiacol], for which the inhibition at 100 µM was found to be 0%.

`CC1=C(CC(=O)O)c2cc(F)ccc2/C1=C\c1ccc([S+](C)[O-])cc1` (stereo not shown) [Sulindac]: the inhibition at 100 µM worked out at 4.16%.

These data come from paper doi:10.1101/2021.10.07.463234v2 (biorxiv, 2021).
